Test results as given in patent US20260215432A1, “ANTIMICROBIAL CONJUGATED OLIGOELECTROLYTES AND METHODS THEREOF” (National University of Singapore, priority 2023, published 2026).

Assays:
[1] = test system: Pseudomonas aeruginosa (PAO1, ATCC 47085); experiment: Time-kill kinetics; format: cell-based; conditions: P. aeruginosa, treatment at or above the MBC
Method: (§1) Separately, MRSA and P. aeruginosa cultures were challenged with DM6P at varying concentrations and aliquots were taken at specific intervals to quantify the bacteria remaining.
(§2) The time-kill kinetics was determined against Pseudomonas aeruginosa (PAO1, ATCC 47085) and methicillin-resistant Staphylococcus aureus (ATCC BAA-1717). Bacteria tested were subcultured in Cation-Adjusted Mueller Hinton II Broth (CAMHB, BD Biosciences) from overnight cultures to mid-log phase at 37° C. with shaking at 200 rpm and diluted to an OD600 value of 0.2 and aliquoted into 2 mL fractions in culture tubes. The resulting bacterial suspension was then challenged with DM6P at varying concentrations and incubated at 37° C. with shaking at 200 rpm. At regular intervals, 100 μL aliquots of each sample were diluted with 10-fold dilution in PBS and plated on TSB agar plates with 100 μL inoculation. The colonies were incubated at 37° C. overnight and counted to determine the cfu/mL of each sample. Experiments were performed in triplicate.

[2] = test system: methicillin-resistant Staphylococcus aureus (ATCC BAA-1717); experiment: Time-kill kinetics; format: cell-based; conditions: MRSA, within the first two hours, concentrations above the MBC value of 4 μg mL^−1
Method: as §1, §2

[3] = mice
Method: At the end-point, mice were sacrificed and the individual organs and blood samples were collected. Tissues were fixed in 10% neutral-buffered formalin (NBF) for 48 hours and subjected to H&E staining and examination. Clinical blood biomarkers were analysed with a Pointcare® cM4 Blood Chemistry Analyzer (Tianjin MNCHIP Technologies Co., Ltd) according to the manufacturer's protocol.

[4] = test system: MRSA; experiment: Propidium iodide influx assay; format: cell-based, S. aureus; conditions: 0.5 to 2 μg mL^−1 (half to twice the MIC)
Description: Another hallmark of cytoplasmic membrane damage is an enhanced permeability towards small molecules. Propidium iodide (PI) is a membrane-impermeant organic dye that can be used to study potential mechanisms of action of antibiotics due to its enhanced fluorescence intensity upon binding to intracellular DNA. Treatment with molecules that cause membrane perturbations enable rapid influx of the dye, resulting in an increase in fluorescence emission that can be monitored over time. […] This difference hints at two plausible mechanisms of action that are concentration dependent. Similar observations have been made for tobramycin, where a protein inhibition mode of action at lower concentrations (<4 μg mL^−1) is supplanted by disruption of the outer membrane at higher concentrations (8 μg mL^−1).
The assay was performed according to a modified reported protocol.^4 Briefly, the corresponding bacteria was collected from mid-log cultures by centrifugation (7000 rpm, 10 minutes) and washed thrice with PBS. The pellet was then resuspended in the same buffer and diluted to an optical density of 2 by extrapolation. […] Fluorescence intensity was measured over time in a plate reader with an excitation wavelength of 525 nm and emission wavelength of 620 nm. Fluorescence signals were measured every 30 seconds and carried out in triplicate.

[5] = test system: MRSA; experiment: Membrane depolarization assay (DiSC3(5)); format: cell-based, S. aureus; conditions: DiSC3(5)-encapsulated MRSA cells
Description: The interactions of DM6P with various bacterial cell membranes were first investigated through spectrometric methods. In normal cells, compartmentalization of the intracellular space by the lipid bilayer enables the maintenance of a transmembrane potential, which is necessary for regular cell division and energy production. The membrane-potential sensitive dye 3,3′-dipropylthiadicarbocyanine iodide (DiSC3(5)) accumulates within the membranes of healthy, polarized cells where its fluorescence is self-quenched. Depolarization of the membrane necessary to maintain this gradient causes the release of this dye, resulting in an increase in fluorescence intensity. […]
Determination of the extent of depolarization of bacterial cell membranes was carried out using a voltage sensitive dye DiSC3(5) (ThermoFisher, USA). The dye is able to accumulate within polarized healthy cell membranes with resulting quenched fluorescence. When the membrane is depolarized, subsequent ion permeabilization releases the dye from the membrane and gives rise to enhanced fluorescence intensity.^3 The assay was performed according to a modified protocol reported previously. […] The plate was incubated in the dark for 30 minutes, with the signal measured every 5 minutes until a stable baseline was observed. COEs were then added at varying concentrations and the fluorescence intensity was measured over time at 37° C. […]

[6] = test system: Staphylococcus pseudintermedius; experiment: Mouse wound infection model, S. pseudintermedius; format: in vivo, mice; conditions: for average CFU: S. pseudintermedius mouse wound
Description: Staphylococcus pseudintermedius (SP) is particularly pathogenic towards dogs, with skin infections such as pyoderma being characterized by a lengthy treatment period and high treatment failure due to antimicrobial resistance. Here, we show high in vivo antimicrobial efficacy of compounds of FIG. 11 in a mouse wound infection model, featuring over a 3-log reduction in bacterial load at low concentrations. The grouping tested with saline has an average CFU of 5.16×10^8 CFU/g. The grouping tested with DM6P (0.1 mg/kg) has an average CFU of 1.62×10^7 CFU/g. The grouping tested with DM6P (0.25 mg/kg) has an average CFU of 5.51×10^5 CFU/g.
For testing against Staphylococcus pseudintermedius, C57BL/6[SPF] mice (female, 18-20 g) were first acclimated, weighed and grouped based on body weight into 3 groups. Mice were anaesthetized and the hair at the back will be shaved and removed. A 6 mm-diameter excisional wound was created on the back of each mouse, and log-phase Staphylococcus pseudintermedius (Sp strain) (in 5 μL PBS) will be inoculated onto the wound. A 3M tegaderm will be used to cover the wound site from contamination. 2 h post infection, the groups were tested with saline, DM6P (0.1 mg/kg) and DM6P (0.25 mg/kg) respectively, by adding directly to wound site. At 12 h and 24 h post infection, sampling and colony enumeration were conducted. At 24 h post infection, all mice were sacrificed and the wound tissue harvested into 1 mL PBS.

[7] = 0.25 mg kg^−1, blood after 14 days, mean ± s.d. (n = 3)

SMILES: COc1cc(/C=C/c2ccc(OCCCCCC[P+](c3ccccc3)(c3ccccc3)c3ccccc3)c(OC)c2)ccc1OCCCCCC[P+](c1ccccc1)(c1ccccc1)c1ccccc1.[I-].[I-] [DM6P]
- killing at or above the MBC value [1]: eradication of the cells
- bacteria remaining (nearly complete killing) [2]: < 100 cfu mL^−1
- ALB (albumin) [3, 7]: 30 ± 3.3 g/L
- ALT (alanine transaminase) [3, 7]: 38.7 ± 4.1 U/L
- AST (aspartate aminotransferase) [3, 7]: 205 ± 50.7 U/L
- BUN (blood urea nitrogen) [3, 7]: 6.7 ± 0.3 mM
- CRE [3, 7]: 63.7 ± 10.1 µM
- GGT (gamma-glutamyl transferase) [3, 7]: 0.6 ± 0.1 U/L
- GLO (globulin) [3, 7]: 18.6 ± 1.5 g/L
- TBIL (total bilirubin) [3, 7]: 2.9 ± 0.5 µM
- TP (total protein) [3, 7]: 48.6 ± 1.9 g/L
- blood biomarker levels compared to saline-treated controls ([3]; 0.25 mg/kg, after 14 days): no significant difference
- H&E staining of the major organs ([3]; DM6P treated, 14 days post-treatment): did not reveal any abnormal signs
- PI influx [4]: PI influx was observed at 2×MIC
- depolarization of the bacterial membrane [5]: dose-dependent depolarization
- average CFU ([6]; 0.1 mg/kg): 1.62×10^7 CFU/g
- average CFU ([6]; 0.25 mg/kg): 5.51×10^5 CFU/g
- tolerability (side effects) ([6]; mice, following compound administration): did not show any negative side effects
